# Laboratory results from patent publication US20250382344A1, “Soluble GLP1/GIP/NPY2 Receptor Triple Agonists” (Boehringer Ingelheim International GmH, priority 2024, published 2025).
# Like-named read-outs stand apart in the source and are kept apart here.
# Key:
# hGLP1R = target: T1, hGLP1R (Homo sapiens, UniProt P43220); experiment: hGLP1R CreLuc assay in 0.5% and 100% plasma (HEK-293 CRE-luciferase reporter cells); assay type: cell-based; conditions: 0.5% human plasma, HEK-293 reporter cells, read-out: hGLP1R 0.5% hP
# T1 construct: expressed in transfected cells; host or cells: HEK-293 CRE-luciferase reporter cells
# T1 sequence (P43220 24-463): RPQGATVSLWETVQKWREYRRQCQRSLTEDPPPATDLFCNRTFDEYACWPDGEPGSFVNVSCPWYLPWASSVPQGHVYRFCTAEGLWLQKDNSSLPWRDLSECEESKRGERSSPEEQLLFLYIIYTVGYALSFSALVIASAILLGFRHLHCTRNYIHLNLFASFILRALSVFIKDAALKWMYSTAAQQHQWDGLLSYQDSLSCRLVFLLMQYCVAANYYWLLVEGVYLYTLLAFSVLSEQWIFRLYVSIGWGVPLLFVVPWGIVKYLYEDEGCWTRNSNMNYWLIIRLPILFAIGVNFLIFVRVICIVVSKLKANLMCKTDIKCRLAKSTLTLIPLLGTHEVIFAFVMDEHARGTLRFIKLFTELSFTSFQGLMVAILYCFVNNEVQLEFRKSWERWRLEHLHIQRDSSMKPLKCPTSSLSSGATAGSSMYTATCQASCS
# hNPY2R = target: T2, hNPY2R (Homo sapiens, UniProt P49146); experiment: hNPY2R CreLuc assay in 0.5% and 100% plasma (HEK-293 CRE-luciferase reporter cells); assay type: cell-based; conditions: HEK-293 reporter cells
# T2 construct: expressed in transfected cells; host or cells: HEK-293 CRE-luciferase reporter cells
# T2 sequence (P49146 1-381): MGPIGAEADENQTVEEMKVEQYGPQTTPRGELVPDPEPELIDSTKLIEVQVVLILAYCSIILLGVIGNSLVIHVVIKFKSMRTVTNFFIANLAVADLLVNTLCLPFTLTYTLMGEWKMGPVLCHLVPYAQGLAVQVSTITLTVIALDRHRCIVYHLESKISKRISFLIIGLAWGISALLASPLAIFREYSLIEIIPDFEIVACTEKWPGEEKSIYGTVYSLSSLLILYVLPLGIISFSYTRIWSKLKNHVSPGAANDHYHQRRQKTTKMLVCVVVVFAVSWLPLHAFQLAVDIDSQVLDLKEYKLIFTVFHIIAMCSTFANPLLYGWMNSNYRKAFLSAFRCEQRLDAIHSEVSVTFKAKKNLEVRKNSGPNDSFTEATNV
# hGIPR = target: T3, hGIPR (Homo sapiens, UniProt P48546); experiment: hGIPR CreLuc assay in 0.5% and 100% plasma (CHO CRE-luciferase reporter cells); assay type: cell-based
# T3 construct: expressed in transfected cells; host or cells: CHO CRE-luciferase reporter cells
# T3 sequence (P48546 22-466): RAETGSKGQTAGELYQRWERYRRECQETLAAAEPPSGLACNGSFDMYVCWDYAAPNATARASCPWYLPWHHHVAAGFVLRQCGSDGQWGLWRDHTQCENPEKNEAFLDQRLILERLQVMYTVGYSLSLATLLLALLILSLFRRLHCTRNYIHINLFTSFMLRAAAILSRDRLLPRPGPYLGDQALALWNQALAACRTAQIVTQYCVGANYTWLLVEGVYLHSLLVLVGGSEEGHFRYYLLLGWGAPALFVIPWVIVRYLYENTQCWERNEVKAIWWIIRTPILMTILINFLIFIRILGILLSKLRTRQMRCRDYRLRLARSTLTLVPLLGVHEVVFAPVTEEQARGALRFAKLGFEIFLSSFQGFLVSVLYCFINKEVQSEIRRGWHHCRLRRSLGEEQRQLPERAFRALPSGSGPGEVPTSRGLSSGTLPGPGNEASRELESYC
# [1] = Solubility in 0.1 M phosphate buffer at pH 7; assay type: physicochemical; conditions: 0.1 M phosphate buffer at pH 7, 10 mg/mL final peptide concentration, shaking 2 hours at room temperature, peptides as TFA-salts; measured sample pH 6.5-7.0
# [2] = 100% human plasma, read-out: hNPY2R 100% hP
# [3] = 0.5% human plasma, read-out: hGIPR 0.5% hP
# [4] = 0.5% human plasma, read-out: hNPY2R 0.5% hP
SMILES,EC50 (hGLP1R),EC50 (hNPY2R; [2]),EC50 (hGIPR; [3]),solubility at 2 h [1],EC50 (hNPY2R; [4]),"EC50 (hGIPR; 100% human plasma, read-out: hGIPR 100% hP)"
"CC[C@H](C)[C@H](NC(=O)[C@H](CC(C)C)NC(=O)[C@H](Cc1c[nH]cn1)NC(=O)[C@H](CCCNC(=N)N)NC(=O)[C@@H](NC(=O)[C@H](Cc1ccccc1)NC(=O)[C@H](CCC(=O)O)NC(=O)C(C)(C)NC(=O)[C@H](CCC(N)=O)NC(=O)[C@H](C)NC(=O)[C@H](CCC(N)=O)NC(=O)[C@H](CCCCN)NC(=O)[C@H](CCC(=O)O)NC(=O)[C@H](CC(C)C)NC(=O)C(C)(C)NC(=O)[C@@H](NC(=O)[C@H](CO)NC(=O)[C@H](Cc1ccc(O)cc1)NC(=O)[C@H](CC(=O)O)NC(=O)[C@H](CO)NC(=O)[C@@H](NC(=O)[C@H](Cc1ccccc1)NC(=O)[C@@H](NC(=O)CNC(=O)[C@H](CCC(=O)O)NC(=O)C(C)(C)NC(=O)[C@@H](N)Cc1ccc(O)cc1)[C@@H](C)O)[C@@H](C)O)[C@@H](C)CC)C(C)C)C(=O)N[C@@H](CC(N)=O)C(=O)N[C@@H](CCCCNC(=O)COCCOCCNC(=O)COCCOCCNC(=O)CC[C@H](NC(=O)CC[C@H](NC(=O)CC[C@H](NC(=O)CC[C@H](NC(=O)CCCCCCCCCCCCCCCCC(=O)O)C(=O)O)C(=O)O)C(=O)O)C(=O)O)C(=O)NC(C)(C)C(=O)N[C@H](C(=O)N[C@@H](CCCNC(=N)N)C(=O)N[C@@H](CCC(N)=O)C(=O)N[C@@H](CCCNC(=N)N)C(=O)N[C@@H](Cc1ccc(O)cc1)C(N)=O)[C@@H](C)O [Compound 73, Y-Aib-E-G-T-F-T-S-D-Y-S-I-Aib-L-E-K-Q-A-Q-Aib-E-F-V-R-H-L-I-N-K(1,3)-Aib-T-R-Q-R-Y-NH2.C18DA-gGlu-gGlu-gGlu-gGlu-OEG-OEG(1,2)]",0.4 nM,136 nM,0.4 nM,4900 µg/mL,,5.9 nM
"CC[C@H](C)[C@H](NC(=O)[C@H](CC(C)C)NC(=O)[C@H](Cc1c[nH]cn1)NC(=O)[C@H](CCCNC(=N)N)NC(=O)[C@@H](NC(=O)[C@H](Cc1ccccc1)NC(=O)[C@H](C)NC(=O)C(C)(C)NC(=O)[C@H](CCC(N)=O)NC(=O)[C@H](C)NC(=O)[C@H](CCC(N)=O)NC(=O)[C@H](CCCCN)NC(=O)[C@H](CCC(=O)O)NC(=O)[C@H](CC(C)C)NC(=O)C(C)(C)NC(=O)[C@@H](NC(=O)[C@H](CO)NC(=O)[C@H](Cc1ccc(O)cc1)NC(=O)[C@H](CC(=O)O)NC(=O)[C@H](CO)NC(=O)[C@@H](NC(=O)[C@H](Cc1ccccc1)NC(=O)[C@@H](NC(=O)CNC(=O)[C@H](CCC(=O)O)NC(=O)C(C)(C)NC(=O)[C@@H](N)Cc1ccc(O)cc1)[C@@H](C)O)[C@@H](C)O)[C@@H](C)CC)C(C)C)C(=O)N[C@@H](CC(N)=O)C(=O)N[C@@H](CCCCNC(=O)[C@@H](N)CCCNC(=O)CC[C@H](NC(=O)CC[C@H](NC(=O)CC[C@H](NC(=O)CC[C@H](NC(=O)CC[C@H](NC(=O)CC[C@H](NC(=O)CCCCCCCCCCCCCCCCC(=O)O)C(=O)O)C(=O)O)C(=O)O)C(=O)O)C(=O)O)C(=O)O)C(=O)NC(C)(C)C(=O)N[C@H](C(=O)N[C@@H](CCCNC(=N)N)C(=O)N[C@@H](CCC(N)=O)C(=O)N[C@@H](CCCNC(=N)N)C(=O)N[C@@H](Cc1ccc(O)cc1)C(N)=O)[C@@H](C)O [Compound 87, Y-Aib-E-G-T-F-T-S-D-Y-S-I-Aib-L-E-K-Q-A-Q-Aib-A-F-V-R-H-L-I-N-K(1,3)-Aib-T-R-Q-R-Y-NH2.C18DA-gGlu-gGlu-gGlu-gGlu-gGlu-gGlu-dtOrn(1,2)]",1.7 nM,57.9 nM,0.2 nM,4900 µg/mL,,

# The remaining lines, values ahead:
EC50 (hGLP1R),EC50 (hNPY2R; [2]),EC50 (hGIPR; [3]),solubility at 2 h [1],EC50 (hNPY2R; [4]),"EC50 (hGIPR; 100% human plasma, read-out: hGIPR 100% hP)",SMILES
1 nM,89.8 nM,0.2 nM,5000 µg/mL,,,"CC[C@H](C)[C@H](NC(=O)[C@H](CC(C)C)NC(=O)[C@H](Cc1c[nH]cn1)NC(=O)[C@H](CCCNC(=N)N)NC(=O)[C@@H](NC(=O)[C@H](Cc1ccccc1)NC(=O)[C@H](C)NC(=O)C(C)(C)NC(=O)[C@H](CCC(N)=O)NC(=O)[C@H](C)NC(=O)[C@H](CCC(N)=O)NC(=O)[C@H](CCCCN)NC(=O)[C@H](CCC(=O)O)NC(=O)[C@H](CC(C)C)NC(=O)C(C)(C)NC(=O)[C@@H](NC(=O)[C@H](CO)NC(=O)[C@H](Cc1ccc(O)cc1)NC(=O)[C@H](CC(=O)O)NC(=O)[C@H](CO)NC(=O)[C@@H](NC(=O)[C@H](Cc1ccccc1)NC(=O)[C@@H](NC(=O)CNC(=O)[C@H](CCC(=O)O)NC(=O)C(C)(C)NC(=O)[C@@H](N)Cc1ccc(O)cc1)[C@@H](C)O)[C@@H](C)O)[C@@H](C)CC)C(C)C)C(=O)N[C@@H](CC(N)=O)C(=O)N[C@@H](CCCCNC(=O)[C@@H](N)CCCCNC(=O)CC[C@H](NC(=O)CC[C@H](NC(=O)CC[C@H](NC(=O)CC[C@H](NC(=O)CC[C@H](NC(=O)CC[C@H](NC(=O)CCCCCCCCCCCCCCCCC(=O)O)C(=O)O)C(=O)O)C(=O)O)C(=O)O)C(=O)O)C(=O)O)C(=O)NC(C)(C)C(=O)N[C@H](C(=O)N[C@@H](CCCNC(=N)N)C(=O)N[C@@H](CCC(N)=O)C(=O)N[C@@H](CCCNC(=N)N)CC(=O)N[C@@H](Cc1ccc(O)cc1)C(N)=O)[C@@H](C)O [Compound 146, Y-Aib-E-G-T-F-T-S-D-Y-S-I-Aib-L-E-K-Q-A-Q-Aib-A-F-V-R-H-L-I-N-K(1,3)-Aib-T-R-Q-bhArg-Y-NH2.C18DA-gGlu-gGlu-gGlu-gGlu-gGlu-gGlu-eLys(1,2)]"
0.5 nM,,0.5 nM,4800 µg/mL,162 nM,,"CC[C@H](C)[C@H](NC(=O)[C@H](CC(C)C)NC(=O)[C@H](Cc1c[nH]cn1)NC(=O)[C@H](CCCNC(=N)N)NC(=O)[C@@H](NC(=O)[C@H](Cc1ccccc1)NC(=O)[C@H](CCC(=O)O)NC(=O)C(C)(C)NC(=O)[C@H](CCC(N)=O)NC(=O)[C@H](C)NC(=O)[C@H](CCC(=O)O)NC(=O)[C@H](CCC(=O)O)NC(=O)[C@H](CCC(=O)O)NC(=O)[C@H](CC(C)C)NC(=O)C(C)(C)NC(=O)[C@@H](NC(=O)[C@H](CO)NC(=O)[C@H](Cc1ccc(O)cc1)NC(=O)[C@H](CC(=O)O)NC(=O)[C@H](CO)NC(=O)[C@@H](NC(=O)[C@H](Cc1ccccc1)NC(=O)[C@@H](NC(=O)CNC(=O)[C@H](CCC(=O)O)NC(=O)C(C)(C)NC(=O)[C@@H](N)Cc1ccc(O)cc1)[C@@H](C)O)[C@@H](C)O)[C@@H](C)CC)C(C)C)C(=O)N[C@@H](CC(N)=O)C(=O)N[C@@H](CCCCNC(=O)CC[C@H](NC(=O)CC[C@H](NC(=O)CC[C@H](NC(=O)CC[C@H](NC(=O)CCCCCCCCCCCCCCCCC(=O)O)C(=O)O)C(=O)O)C(=O)O)C(=O)O)C(=O)NC(C)(C)C(=O)N[C@H](C(=O)N[C@@H](CCCNC(=N)N)C(=O)N[C@@H](CCC(N)=O)C(=O)N[C@@H](CCCNC(=N)N)C(=O)N[C@@H](Cc1ccc(O)cc1)C(N)=O)[C@@H](C)O [Compound 64, Y-Aib-E-G-T-F-T-S-D-Y-S-I-Aib-L-E-E-E-A-Q-Aib-E-F-V-R-H-L-I-N-K(1,3)-Aib-T-R-Q-R-Y-NH2.C18DA-gGlu-gGlu-gGlu-gGlu(1,2)]"
1 nM,,0.2 nM,10000 µg/mL,13.3 nM,,"CC[C@H](C)[C@H](NC(=O)[C@H](CC(C)C)NC(=O)[C@H](Cc1c[nH]cn1)NC(=O)[C@H](CCCNC(=N)N)NC(=O)[C@@H](NC(=O)[C@H](Cc1ccccc1)NC(=O)[C@H](C)NC(=O)C(C)(C)NC(=O)[C@H](CCC(N)=O)NC(=O)[C@H](C)NC(=O)[C@H](CCC(N)=O)NC(=O)[C@H](CCCCN)NC(=O)[C@H](CCC(=O)O)NC(=O)[C@H](CC(C)C)NC(=O)C(C)(C)NC(=O)[C@@H](NC(=O)[C@H](CO)NC(=O)[C@H](Cc1ccc(O)cc1)NC(=O)[C@H](CC(=O)O)NC(=O)[C@H](CO)NC(=O)[C@@H](NC(=O)[C@H](Cc1ccccc1)NC(=O)[C@@H](NC(=O)CNC(=O)[C@H](CCC(=O)O)NC(=O)C(C)(C)NC(=O)[C@@H](N)Cc1ccc(O)cc1)[C@@H](C)O)[C@@H](C)O)[C@@H](C)CC)C(C)C)C(=O)N[C@@H](CC(N)=O)C(=O)N[C@@H](CCCCNC(=O)CCCCCNC(=O)CC[C@H](NC(=O)CC[C@H](NC(=O)CC[C@H](NC(=O)CC[C@H](NC(=O)CC[C@H](NC(=O)CCCCCCCCCCCCCCCCCCC(=O)O)C(=O)O)C(=O)O)C(=O)O)C(=O)O)C(=O)O)C(=O)NC(C)(C)C(=O)N[C@H](C(=O)N[C@@H](CCCNC(=N)N)C(=O)N[C@@H](CCC(N)=O)C(=O)N[C@@H](CCCNC(=N)N)C(=O)N[C@@H](Cc1ccc(O)cc1)C(N)=O)[C@@H](C)O [Compound 167, Y-Aib-E-G-T-F-T-S-D-Y-S-I-Aib-L-E-K-Q-A-Q-Aib-A-F-V-R-H-L-I-N-K(1,3)-Aib-T-R-Q-R-Y-NH2.C20DA-gGlu-gGlu-gGlu-gGlu-gGlu-AHX(1,2)]"
